Measured values: publication PMC3048208 (British Journal of Cancer, 2011)
Where a name gives a salt, the structure may show the parent alone. Marks after values point to notes of the source that are not given here.

Tested on: patients with advanced solid tumours
Test: Phase I safety: DLT and adverse events (CTCAE v3.0)
[1] = All grades, level 1, 10 mg 3 days every 2 weeks, 3 patients
[2] = All grades, level 2, 10 mg, 6 patients
[3] = All grades, level 3, 20 mg, 6 patients
[4] = All grades, level 4, 30 mg, 4 patients
[5] = All grades, level 5, 50 mg, 4 patients
[6] = All grades, level 5.5, 60 mg, 7 patients
[7] = All grades, level 6, 70 mg, 6 patients
[8] = All grades, level 7, 90 mg, 2 patients
[9] = Grades 3/4, level 1, 10 mg 3 days every 2 weeks, 3 patients

CCCCc1nc2cc(/C=C/C(=O)NO)ccc2n1CCN(CC)CC [SB939, 3-[2-butyl-1-(2-diethylaminoethyl)-1H-benzoimidazol-5-yl]-N-hydroxyacrylami-hydrochloride]
Grade 2 raised AST and hyperbilirubinemia, no. of patients (60 mg): 3
Grade 3 ALT rise, no. of patients (60 mg): two
Dose reductions, patients (70 mg): 2 of 6
Dose reductions, patients (90 mg): 2 of 2
ALT (raised), no. of patients [1]: 0
AST (raised), no. of patients [1]: 1
Abdominal pain, no. of patients [1]: 0
Alkaline phophatase (raised), no. of patients [1]: 1
Altered taste, no. of patients [1]: 0
Anaemia, no. of patients [1]: 2
Anorexia, no. of patients [1]: 0
Bilirubin (raised), no. of patients [1]: 0
Cardiac arrythmia other, no. of patients [1]: 0
Cardiac dysfunction, no. of patients [1]: 0
Cardiac ischaemia, no. of patients [1]: 0
Constipation, no. of patients [1]: 0
Creatinine (raised), no. of patients [1]: 0
Diarrhoea, no. of patients [1]: 0
Fatigue, no. of patients [1]: 0
Leukopenia, no. of patients [1]: 1
Lymphopenia, no. of patients [1]: 0
Mucositis, no. of patients [1]: 1
Myositis, no. of patients [1]: 0
Nausea, no. of patients [1]: 0
Neutropenia, no. of patients [1]: 1
QT prolongation, no. of patients [1]: 0
Supra ventricular arrythmia, no. of patients [1]: 0
Syncope, no. of patients [1]: 0
Thrombocytopenia, no. of patients [1]: 0
Ventricular arrythmias (PVCs), no. of patients [1]: 0
Ventricular bigemini, no. of patients [1]: 0
Vomiting, no. of patients [1]: 0
ALT (raised), no. of patients [2]: 1
AST (raised), no. of patients [2]: 3
Abdominal pain, no. of patients [2]: 0
Alkaline phophatase (raised), no. of patients [2]: 5
Altered taste, no. of patients [2]: 0
Anaemia, no. of patients [2]: 6
Anorexia, no. of patients [2]: 0
Bilirubin (raised), no. of patients [2]: 1
CPK, no. of patients [2]: 0
Cardiac arrythmia other, no. of patients [2]: 0
Cardiac dysfunction, no. of patients [2]: 0
Cardiac ischaemia, no. of patients [2]: 0
Constipation, no. of patients [2]: 0
Creatinine (raised), no. of patients [2]: 1
Diarrhoea, no. of patients [2]: 1
Fatigue, no. of patients [2]: 2
Leukopenia, no. of patients [2]: 2
Lymphopenia, no. of patients [2]: 5
Mucositis, no. of patients [2]: 1
Myositis, no. of patients [2]: 0
Nausea, no. of patients [2]: 0
Neutropenia, no. of patients [2]: 1
QT prolongation, no. of patients [2]: 1
Supra ventricular arrythmia, no. of patients [2]: 0
Syncope, no. of patients [2]: 0
Thrombocytopenia, no. of patients [2]: 2
Ventricular arrythmias (PVCs), no. of patients [2]: 1 ^c
Ventricular bigemini, no. of patients [2]: 1 ^c
Vomiting, no. of patients [2]: 0
ALT (raised), no. of patients [3]: 2
AST (raised), no. of patients [3]: 3
Abdominal pain, no. of patients [3]: 0
Alkaline phophatase (raised), no. of patients [3]: 4
Altered taste, no. of patients [3]: 1
Anaemia, no. of patients [3]: 5
Anorexia, no. of patients [3]: 2
Bilirubin (raised), no. of patients [3]: 1
CPK, no. of patients [3]: 1
Cardiac arrythmia other, no. of patients [3]: 0
Cardiac dysfunction, no. of patients [3]: 0
Cardiac ischaemia, no. of patients [3]: 0
Constipation, no. of patients [3]: 0
Creatinine (raised), no. of patients [3]: 1
Diarrhoea, no. of patients [3]: 1
Fatigue, no. of patients [3]: 2
Leukopenia, no. of patients [3]: 1
Lymphopenia, no. of patients [3]: 2
Mucositis, no. of patients [3]: 0
Myositis, no. of patients [3]: 1
Nausea, no. of patients [3]: 2
Neutropenia, no. of patients [3]: 1
QT prolongation, no. of patients [3]: 0
Supra ventricular arrythmia, no. of patients [3]: 0
Syncope, no. of patients [3]: 1
Thrombocytopenia, no. of patients [3]: 1
Ventricular arrythmias (PVCs), no. of patients [3]: 0
Ventricular bigemini, no. of patients [3]: 0
Vomiting, no. of patients [3]: 1
ALT (raised), no. of patients [4]: 2
AST (raised), no. of patients [4]: 1
Abdominal pain, no. of patients [4]: 0
Alkaline phophatase (raised), no. of patients [4]: 2
Altered taste, no. of patients [4]: 0
Anaemia, no. of patients [4]: 4
Anorexia, no. of patients [4]: 0
Bilirubin (raised), no. of patients [4]: 1
CPK, no. of patients [4]: 1
Cardiac arrythmia other, no. of patients [4]: 0
Cardiac dysfunction, no. of patients [4]: 0
Cardiac ischaemia, no. of patients [4]: 0
Constipation, no. of patients [4]: 0
Creatinine (raised), no. of patients [4]: 2
Diarrhoea, no. of patients [4]: 1
Fatigue, no. of patients [4]: 1
Leukopenia, no. of patients [4]: 2
Lymphopenia, no. of patients [4]: 2
Mucositis, no. of patients [4]: 0
Myositis, no. of patients [4]: 0
Nausea, no. of patients [4]: 0
Neutropenia, no. of patients [4]: 2
QT prolongation, no. of patients [4]: 0
Supra ventricular arrythmia, no. of patients [4]: 0
Syncope, no. of patients [4]: 0
Thrombocytopenia, no. of patients [4]: 0
Ventricular arrythmias (PVCs), no. of patients [4]: 0
Ventricular bigemini, no. of patients [4]: 0
Vomiting, no. of patients [4]: 0
ALT (raised), no. of patients [5]: 0
AST (raised), no. of patients [5]: 2
Abdominal pain, no. of patients [5]: 0
Alkaline phophatase (raised), no. of patients [5]: 2
Altered taste, no. of patients [5]: 0
Anaemia, no. of patients [5]: 4
Anorexia, no. of patients [5]: 1
Bilirubin (raised), no. of patients [5]: 0
CPK, no. of patients [5]: 0
Cardiac arrythmia other, no. of patients [5]: 0
Cardiac dysfunction, no. of patients [5]: 0
Cardiac ischaemia, no. of patients [5]: 0
Constipation, no. of patients [5]: 0
Creatinine (raised), no. of patients [5]: 0
Diarrhoea, no. of patients [5]: 0
Fatigue, no. of patients [5]: 3
Leukopenia, no. of patients [5]: 1
Lymphopenia, no. of patients [5]: 4
Mucositis, no. of patients [5]: 0
Myositis, no. of patients [5]: 0
Nausea, no. of patients [5]: 2
Neutropenia, no. of patients [5]: 1
QT prolongation, no. of patients [5]: 0
Supra ventricular arrythmia, no. of patients [5]: 0
Syncope, no. of patients [5]: 0
Thrombocytopenia, no. of patients [5]: 0
Ventricular arrythmias (PVCs), no. of patients [5]: 0
Ventricular bigemini, no. of patients [5]: 0
Vomiting, no. of patients [5]: 2
ALT (raised), no. of patients [6]: 4
AST (raised), no. of patients [6]: 5
Abdominal pain, no. of patients [6]: 0
Alkaline phophatase (raised), no. of patients [6]: 6
Altered taste, no. of patients [6]: 1
Anaemia, no. of patients [6]: 7
Anorexia, no. of patients [6]: 4
Bilirubin (raised), no. of patients [6]: 2
CPK, no. of patients [6]: 0
Cardiac arrythmia other, no. of patients [6]: 1
Cardiac dysfunction, no. of patients [6]: 0
Cardiac ischaemia, no. of patients [6]: 0
Constipation, no. of patients [6]: 0
Creatinine (raised), no. of patients [6]: 2
Diarrhoea, no. of patients [6]: 4
Fatigue, no. of patients [6]: 6
Leukopenia, no. of patients [6]: 5
Lymphopenia, no. of patients [6]: 6
Mucositis, no. of patients [6]: 0
Myositis, no. of patients [6]: 0
Nausea, no. of patients [6]: 5
Neutropenia, no. of patients [6]: 5
QT prolongation, no. of patients [6]: 1
Supra ventricular arrythmia, no. of patients [6]: 0
Syncope, no. of patients [6]: 0
Thrombocytopenia, no. of patients [6]: 5
Ventricular arrythmias (PVCs), no. of patients [6]: 0
Ventricular bigemini, no. of patients [6]: 0
Vomiting, no. of patients [6]: 4
ALT (raised), no. of patients [7]: 1
AST (raised), no. of patients [7]: 2
Abdominal pain, no. of patients [7]: 0
Alkaline phophatase (raised), no. of patients [7]: 3
Altered taste, no. of patients [7]: 0
Anaemia, no. of patients [7]: 6
Anorexia, no. of patients [7]: 3
Bilirubin (raised), no. of patients [7]: 0
CPK, no. of patients [7]: 1
Cardiac arrythmia other, no. of patients [7]: 0
Cardiac dysfunction, no. of patients [7]: 0
Cardiac ischaemia, no. of patients [7]: 0
Constipation, no. of patients [7]: 0
Creatinine (raised), no. of patients [7]: 2
Diarrhoea, no. of patients [7]: 0
Fatigue, no. of patients [7]: 4
Leukopenia, no. of patients [7]: 3
Lymphopenia, no. of patients [7]: 4
Mucositis, no. of patients [7]: 1
Myositis, no. of patients [7]: 0
Nausea, no. of patients [7]: 4
Neutropenia, no. of patients [7]: 3
QT prolongation, no. of patients [7]: 1
Supra ventricular arrythmia, no. of patients [7]: 0
Syncope, no. of patients [7]: 0
Thrombocytopenia, no. of patients [7]: 6
Ventricular arrythmias (PVCs), no. of patients [7]: 0
Ventricular bigemini, no. of patients [7]: 0
Vomiting, no. of patients [7]: 2
ALT (raised), no. of patients [8]: 2
AST (raised), no. of patients [8]: 2
Abdominal pain, no. of patients [8]: 0
Alkaline phophatase (raised), no. of patients [8]: 1
Altered taste, no. of patients [8]: 1
Anaemia, no. of patients [8]: 2
Anorexia, no. of patients [8]: 1
Bilirubin (raised), no. of patients [8]: 1
CPK, no. of patients [8]: 1
Cardiac arrythmia other, no. of patients [8]: 1
Cardiac dysfunction, no. of patients [8]: 1
Cardiac ischaemia, no. of patients [8]: 1
Constipation, no. of patients [8]: 0
Creatinine (raised), no. of patients [8]: 2
Diarrhoea, no. of patients [8]: 0
Fatigue, no. of patients [8]: 2 ^c
Leukopenia, no. of patients [8]: 1
Lymphopenia, no. of patients [8]: 2
Mucositis, no. of patients [8]: 0
Myositis, no. of patients [8]: 0
Nausea, no. of patients [8]: 2
Neutropenia, no. of patients [8]: 1
QT prolongation, no. of patients [8]: 1
Supra ventricular arrythmia, no. of patients [8]: 1
Syncope, no. of patients [8]: 0
Thrombocytopenia, no. of patients [8]: 2
Ventricular arrythmias (PVCs), no. of patients [8]: 1
Ventricular bigemini, no. of patients [8]: 1
Vomiting, no. of patients [8]: 2 ^c
ALT (raised), no. of patients [9]: 0
AST (raised), no. of patients [9]: 0
Abdominal pain, no. of patients [9]: 0
Alkaline phophatase (raised), no. of patients [9]: 0
Altered taste, no. of patients [9]: 0
Anaemia, no. of patients [9]: 0
Anorexia, no. of patients [9]: 0
Bilirubin (raised), no. of patients [9]: 0
Cardiac arrythmia other, no. of patients [9]: 0
Cardiac dysfunction, no. of patients [9]: 0
Cardiac ischaemia, no. of patients [9]: 0
Constipation, no. of patients [9]: 0
Creatinine (raised), no. of patients [9]: 0
Diarrhoea, no. of patients [9]: 0
Fatigue, no. of patients [9]: 0
Leukopenia, no. of patients [9]: 0
Lymphopenia, no. of patients [9]: 0
Mucositis, no. of patients [9]: 0
